The text below walks through data of patent publication US20100137277A1, “PYRIDINE COMPOUNDS AND THEIR USE AS P2Y12 ANTAGONISTS” (ASTRAZENECA AB, priority 2007, published 2010).

Usually IC50 stands for the concentration that gives 50% inhibition. A high value points to lower potency.

T1 sequence (Q9H244 whole entry): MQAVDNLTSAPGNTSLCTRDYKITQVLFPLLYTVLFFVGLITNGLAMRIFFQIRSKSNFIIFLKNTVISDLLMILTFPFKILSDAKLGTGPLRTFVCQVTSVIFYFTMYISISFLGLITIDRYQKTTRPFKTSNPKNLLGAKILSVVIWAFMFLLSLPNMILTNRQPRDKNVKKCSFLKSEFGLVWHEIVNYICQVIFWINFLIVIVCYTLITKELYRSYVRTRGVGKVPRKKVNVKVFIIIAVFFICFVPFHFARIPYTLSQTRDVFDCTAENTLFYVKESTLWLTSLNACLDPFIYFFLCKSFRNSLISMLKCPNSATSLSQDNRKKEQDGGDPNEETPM

This test has as its target T1, P2Y12 receptor (Homo sapiens, UniProt Q9H244).
T1 construct: expressed in transfected cells; host or cells: CHO cells (membranes)
The test can be described thus: Functional inhibition of 2-Me-S-ADP induced P2Y12 signalling (35S-GTPγS binding, membranes from P2Y12 transfected CHO-cells). It is filed as biochemical. Particulars: EC80 of agonist, value given at the end of each example. The method, then:
Functional inhibition of—the P2Y12 receptor can be measured by in vitro assays using cell membranes from P2Y12 transfected CHO-cells, the methodology is indicated below.
Functional inhibition of 2-Me-S-ADP induced P2Y12 signalling: 5 μg of membranes were diluted in 200 μl of 200 mM NaCl, 1 mM MgCl2, 50 mM HEPES (pH 7.4), 0.01% BSA, 30 μg/ml saponin and 10 μM GDP. To this was added an EC80 concentration of agonist (2-methyl-thio-adenosine diphosphate), the required concentration of test compound and 0.1 μCi ^35S-GTPγS. The reaction was allowed to proceed at 30° C. for 45 min. Samples were then transferred on to GF/B filters using a cell harvester and washed with wash buffer (50 mM Tris (pH 7.4), 5 mM MgCl2, 50mM NaCl). Filters were then covered with scintilant and counted for the amount of ^35S-GTPγS retained by the filter. Maximum activity was that determined in the presence of the agonist and minimum activity in the absence of the agonist following subtraction of the value determined for non-specific activity. The effect of compounds at various concentrations was plotted according to the equation
y=A+((B−A)/(1+((C/x)̂D)))
and IC50 estimated where • A is the bottom plateau of the curve i.e. the final minimum y value • B is the top of the plateau of the curve i.e. the final maximum y value • C is the x value at the middle of the curve. This represents the log EC50 value when A+B=100 • D is the slope factor. • x is the original known x values. • Y is the original known y values.
Functional inhibition of 2-Me-S-ADP induced P2Y12 signalling: 5 μg of membranes were diluted in 200 μl of 200 mM NaCl, 1 mM MgCl2, 50 mM HEPES (pH 7.4), 0.01% BSA, 30 μg/ml saponin and 10 μM GDP. To this was added an EC80 concentration of agonist (2-methyl-thio-adenosine diphosphate), the required concentration of test compound and 0.1 μCi ^35S-GTPγS. The reaction was allowed to proceed at 30° C. for 45 min. Samples were then transferred on to GF/B filters using a cell harvester and washed with wash buffer (50 mM Tris (pH 7.4), 5 mM MgCl2, 50 mM NaCl). […]
`CCOC(=O)c1cc(C#N)c(N2CC(C(=O)NS(=O)(=O)Cc3ccccc3)C2)nc1COCc1ccccc1` [Example 35, Ethyl 2-[(benzyloxy)methyl]-6-{3-[(benzylsulfonyl)carbamoyl]azetidin-1-yl}-5-cyanonicotinate]: the IC50 stood at 0.089 µM. The result for `CCOC(=O)c1cc(C#N)c(N2CC(C(=O)NS(=O)(=O)Cc3ccccc3F)C2)nc1OC` [Example 21] reads 0.015 µM. The result for `CCOC(=O)c1cc(C#N)c(N2CCC(C(=O)NS(=O)(=O)c3ccccc3)CC2)nc1OC` [Example 7, Ethyl 5-cyano-2-methoxy-6-{4-[(phenylsulfonyl)carbamoyl]piperidin-1-yl}nicotinate] reads 0.134 µM.
